Drawing on BindingDB's records for doi:10.1016/j.bmcl.2009.04.147 (Banyu Pharmaceutical, 2009), this text covers IC50 for three compounds.

In general, IC50 refers to the concentration needed to halve the response being measured.

Structures are written as SMILES.

The target in the experiment is Melanin-concentrating hormone receptor 1 (Homo sapiens, UniProt Q99705). Nature of the experiment: Radioligand Binding Assay (IC50) and Functional Assay (EC50/IC50). Conditions: pH 7.4; 22 °C. As for the experimental part: Compounds were evaluated for their binding affinity to the membranes of CHO-K1 cells expressing human MCH1R (hMCH1R) in a competition binding assay with [125I]-MCH as the radioligand. After incubation, the membranes were filtrated onto GF/C filter plates and dried. The radioactivity was counted using a microplate scintillation counter (TopCount, PerkinElmer). Non-specific binding was determined by including 1 uM unlabeled MCH in the binding reaction. Antagonistic activity (EC50/IC50) was estimated by the inhibitory effect of compounds on intracellular calcium mobilization induced by MCH using a FLIPR in CHO-K1 cells expressing human MCH1R. The cells were treated with the test compounds for 5 min before addition of MCH.
Sequence of Melanin-concentrating hormone receptor 1 (Q99705 as listed by the source): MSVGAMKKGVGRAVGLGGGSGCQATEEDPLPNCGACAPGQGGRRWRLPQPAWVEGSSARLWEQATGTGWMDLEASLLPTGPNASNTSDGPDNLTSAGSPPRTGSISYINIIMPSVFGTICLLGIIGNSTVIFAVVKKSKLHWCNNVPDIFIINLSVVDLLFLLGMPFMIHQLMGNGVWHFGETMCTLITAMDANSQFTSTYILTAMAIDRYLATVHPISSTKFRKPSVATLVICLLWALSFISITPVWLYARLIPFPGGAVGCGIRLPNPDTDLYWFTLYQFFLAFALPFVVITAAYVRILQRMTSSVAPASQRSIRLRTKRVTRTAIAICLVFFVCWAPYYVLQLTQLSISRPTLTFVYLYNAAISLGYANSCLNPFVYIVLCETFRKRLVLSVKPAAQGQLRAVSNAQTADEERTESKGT
Compound `CN(c1nc2ccc(NC(=O)CCc3ccc(C(F)(F)F)cc3)cc2[nH]1)C1CCCC1` [2-aminobenzimidazole-based compound, 12] registered an IC50 of 22 nM.

For `CN(c1nc2ccc(NC(=O)CCc3ccc(C(F)(F)F)cc3)cc2[nH]1)C1CCCCC1` [2-aminobenzimidazole-based compound, 13], the IC50 amounted to 27 nM.

For the compound `CC(C)N(C)c1nc2ccc(NC(=O)CCc3ccc(C(F)(F)F)cc3)cc2[nH]1` [2-aminobenzimidazole-based compound, 8], the IC50 was 21 nM. This IC50 and that of the compound before are within 1.5-fold of each other.
